Source: US7507727B2, “Substituted quinobenzoxazine analogs and methods of using thereof” (Cylene Pharmaceuticals, Inc., priority 2003, dated 2009)
Several values for one entry are separate records, joined by “and”; a condition that tells them apart may be missing. Identical values can stand only once. Like-named read-outs stand apart in the source and are kept apart here.

Legend:
[1] = tested on: Salmonella typhimurium (TA97a, TA98, TA100, TA102, TA1535); conditions: positive control
Method: This Mutagenicity Assessment (Ames Assay) evaluated the potential of the test article extracts to induce histidine (his) reversion in S. typhimurium (his− to his+) or tryptophan (trp) reversion in E. coli (trp− to trp+) caused by base changes or frameshift mutations in the genome of tester organisms.
This plate incorporation assay was conducted with five strains of Salmonella typhimurium (TA97a, TA98, TA100, TA102, and TA1535) and one strain of Escherichia coli (WP2-uvrA^−) in the presence and absence of an exogenous mammalian activation system (S9). The test article was dissolved in 5% dextrose. A series of dilutions were then prepared in saline just prior to testing. A Range Finding Study was conducted for this assay to determine the appropriate doses for definitive mutagenicity assessment.
A stock solution of test article was prepared at 20.0 mg/mL as follows: 1.0 g test article was added to 15.0 mL of 0.1 HCl for 1 minute. The test article was stirred for 15 minutes at room temperature. Next 33.0 mL of deionized water was added and allowed to stir for 30 minutes. […] Lower doses were prepared by dilution in 5% dextrose from this stock immediately prior to use. To minimize any change of degradation, the test article solutions were kept on ice after preparation and until just prior to dosing procedures. The test article was administered in vitro, through a solvent compatible with the test system.
This assay has historically been used to detect mutation in a gene of a histidine requiring strain to produce a histidine independent strain or concordantly, to detect mutation in a gene of a tryptophan requiring strain to produce a tryptophan independent strain.
S. typhimurium strain TA1535 and E. coli strain Wp2-uvrA^− were received from American Type Culture Collection, Manassas, Va. […] All working stocks of test strains will be confirmed for genotypic markers and acceptable reversion rates.
Master plates of the tester strains were prepared from frozen working stocks. To create working cultures for each bacterial strain used in the assay, a single colony was transferred from the master plate into Oxoid nutrient broth and incubated, with shaking, at 37±2° C. until an optical density (at 650 nm) of 0.6-1.6 was reached. This overnight culture was used for the mutagenicity test and for genotypic confirmation. Genotype tests were performed.
For both the dose range and mutagenicity test, a top agar consisting of 0.6% Difco agar in 0.5% NaCl was melted and a solution of 0.5 mM L-histidine/0.5 mM biotin or 0.5 mM L-tryptophan was added to the melted top agar at a ratio of 10 mL per 100 mL agar, as required. The supplemented agar was aliquotted, 2 mL per tube and held at 45-47° C. To prepare the top agar for treatment, 0.1 mL of the test article or control, 0.1 mL of the bacterial culture and 0.5 mL of phosphate buffered saline were added to the molten agar. […] Metabolic activation was provided by adding 0.5 mL of the S9 mix in place of the PBS. […] All plates were counted using an automatic image analysis system. Negative control and test article treated plates were also examined for the presence of a bacterial lawn.
The in vitro metabolic activation system used in this assay was comprised of Sprague Dawley rat liver enzymes and a cofactor pool. […] Immediately prior to use, the S9 was thawed and mixed with a cofactor pool to contain 5% S9, 5 mM glucose 6-phosphate, 4 mM β-nicotine-adenine dinucleotide phosphate, 8 mM MgCl2 and 33 mM KCl in a 200 mM phosphate buffer at pH 7.4. The S9 was purchased from Moltox (Boone, N.C.) and maintained frozen at less than −70° C.
For the definitive assay, three dose levels were chosen ([…], and 5.0 mg/mL). This was equivalent to 2.0, 1.0, and 0.5 mg/plate. All treatments, including negative and positive control, were plated in triplicate against test strains TA97a, TA98, TA100, TA102, TA1535, and WP2-uvrA^− in the presence and absence of metabolic activation.

[2] = tested on: HCT-116 cells; assay: Annexin V-Alexa 488 staining; format: cell-based; conditions: 0.5 uM, control
Method: The following protocol was followed for this example. […] Incubate o/n or up to 24 hrs at 37° C. in CO2 incubator. […] Keep one or two untreated plates (medium only) as control plates. […] Harvest cells (collect attached as well as floating cells). Wash cells twice with cold PBS. Re-suspend cells in 1× Annexin binding buffer.
Count cells and dilute in 1× Annexin binding buffer to ˜1×10^6 cells/0.1 ml, preparing a sufficient volume to have 100 μl per assay. Add 5 μl of the Annexin V conjugate to each 100 μl of cell suspension. Add 4 μl of propidium iodide solution (stock=1 mg/ml) to each 100 μl of cell suspension. Incubate sample at RT for 15 minutes. Add 400 μl Annexin binding buffer, mix gently and keep samples on ice. Analyze stained cells immediately by flow cytometry.

[3] = tested on: Chinese Hamster Ovary Cells (CHO); assay: In vitro chromosome aberration assay (incl. mitotic index); format: cell-based
[4] = tested on: HCT-116 xenograft; assay: HCT-116 colorectal cancer xenograft model; format: in vivo; conditions: HCT-116 model; FIG. 6
Method: (§1) Two xenograft models for inoculation were harvested and diluted to a concentration of 50×10^6 cells/ml or 100×10^6 cells/ml. Four to six week old nude mice were injected with 0.1 ml of the cell suspension containing between 5×10^6 and 10×10^6 cells. When tumors are of a suitable size compound dosing is commenced. Tumor sizes are measured throughout the treatment period with calipers and body weights also measured.
CX-3543 was tested against a number of cancer xenograft models to determine the in vivo efficacy. HCT-116 and PC-3 tumor-bearing nu/nu or MiaPaCa tumor-bearing SCID mice were administered reference and testing compounds on schedules indicated in figure legends. Tumor measurements were taken with calipers every other day or twice a week starting from the first day of dosing and body weights were measured at the same time points. Tumor volumes were calculated from the standard formula, W^2×L/2. c-MYC mRNA expression was measured with QPCR from all tumor samples following the final dose. 18S ribosomal RNA was used as a housekeeper and also quantified with QPCR.

[5] = target: c-Myc template DNA (c-myc quadruplex); assay: Quadruplex binding / stop assay (Taq polymerase arrest, capillary electrophoresis)
[6] = tested on: HeLa cells; assay: MTS cell proliferation and/or cytotoxicity assay; format: cell-based, Human; conditions: Homo sapiens, HeLa
In short: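 HeLa cells seeded at 4,500 cells/well, exposed to compounds from day 1 for 3 days at 37 °C, 5% CO2. Viability by MTS/PMS (20:1) with 4 h incubation, absorbance at 490 nm. Values are concentrations giving 50% antiproliferative response.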

[7] = tested on: Ramos xenograft; assay: Ramos Burkitt's lymphoma xenograft model; format: in vivo; conditions: FIG. 5
Method: as §1

[8] = tested on: HCT-116; assay: Cell proliferation/cytotoxicity in HCT-116 (Table 1D); format: cell-based; conditions: Homo sapiens; HCT-116 cells; unit inferred
[9] = tested on: topoisomerase II; assay: Topoisomerase-II poison assay; format: biochemical; conditions: 1 μM; control Topoisomerase-II poison
Description: FIG. 7 illustrates data from a toposiomerase-II poison assay, using VP-16 (Etoposide) as a control Topoisomerase-II poison.

[10] = CHO, positive control high dose (H)
[11] = CHO, positive control low dose (L)
[12] = CHO, positive control low dose (L), 20 hrs
[13] = read-out: S DATA, Table 1D, stop assay data
[14] = HeLa cells, MTS, read-out: Hela MTS

## Nc1ccc2cc3ccccc3cc2c1 [2-AA]
[1]; TA100, with S9 activation
  FI: 6.8
  TA100 colony count (Rep 1-3): 655 and 857 and 949
  TA100 colony count, Mean: 820.3

## CC[C@@]1(O)C(=O)OCc2c1cc1n(c2=O)Cc2cc3ccccc3nc2-1 [CPT]
[2]
  Annexin V / duplex DNA dye response: mixed apoptotic/necrotic response

## CO[C@@]12[C@H](COC(N)=O)C3=C(C(=O)C(C)=C(N)C3=O)N1C[C@@H]1N[C@@H]12 [MMC]
[3]; [10]
  % CA 3 HRS: 42.0%
  FI 3 HRS: 14.0
[3]; [11]
  % CA 3 HRS: 20.3%
  FI 3 HRS: 6.8
[3]; [12]
  % CA 20 HRS: 26.5%
  FI 20 HRS: 8.8
[3]; average mitotic index, positive control low dose (L), 20 hrs
  % MI 20 HRS: 5%
[3]; average mitotic index, positive control low dose (L), first column (time not given)
  % MI: 6%

## [N-]=[N+]=[N-] [Sodium Azide]
[1]; TA100, without S9 activation
  FI: 4.9
  TA100 colony count (Rep 1-3): 615 and 631 and 702
  TA100 colony count, Mean: 649.3

## O=C(NCCN1CCCC1)c1cn2c3c(c(NCCCN4CCOCC4)c(F)cc3c1=O)Oc1cc3ccccc3cc1-2 [compound 494]
[4]
  antitumor activity: efficacy: slow tumor weight gain
  toxicity (body weight): little body weight change
[5]; read-out: Stop Data c-Myc μM, concentration at which 50% of the DNA was arrested (arrested:full-length 1:1)
  IC50: 0.44 µM
[6]; 72 h, concentration at which 50% of antiproliferative cell response is seen, 3 days incubation, read-out: MTS Data Hella
  IC50: 190 nM

## CN1CCN(CCCNCCC(=O)N[C@@H]2CCN(c3c(F)cc4c(=O)c(C(=O)N5CCOCC5)cn5c4c3Oc3cc4c(cc3-5)oc3ccccc34)C2)CC1 [compound 1204]
[7]
  antitumor activity: efficacy: slow tumor weight gain
  toxicity (body weight): little body weight change

## CN1CCCC1CCNC(=O)c1cn2c3c(c(N[C@H]4CN5CCC4CC5)c(F)cc3c1=O)Oc1cc3ccccc3cc1-2 (some centres unmarked) [compound 1496]
[5]; [13]
  IC50: 0.375 µM
[8]
  IC50: 340 nM

## O=C(NCCN1CCCC1)c1cn2c3c(c(SCCc4ccccn4)c(F)cc3c1=O)Oc1cc3ccccc3cc1-2 [compound 1782]
[5]; [13]
  IC50: 3.3 µM
[6]; [14]
  IC50: 2100 nM

## O=C(NCCN1CCCC1)c1cn2c3c(c(N4CCC(c5cnccn5)C4)c(F)cc3c1=O)Oc1ccc(Cl)cc1-2 (centres unmarked) [compound 1795]
[5]; [13]
  IC50: 2.9 µM
[6]; [14]
  IC50: 500 nM

## NC1CCN(c2c(F)cc3c(=O)c(C(=O)NCCN4CCCC4)cn4c3c2Oc2cc(Cl)ccc2-4)C1 (centres unmarked) [compound 1800]
[5]; [13]
  IC50: 2.6 µM
[6]; [14]
  IC50: 180 nM

## O=C(NCCN1CCCC1)c1cn2c3c(c(N4CCC(c5cnccn5)C4)c(F)cc3c1=O)Oc1cc(Cl)ccc1-2 (centres unmarked) [compound 1811]
[5]; [13]
  IC50: 2.8 µM
[8]
  IC50: 200 nM

## O=C(NCCN1CCCC1)c1cn2c3c(c(NCCCN4CCOCC4)c(F)cc3c1=O)Oc1cc(Cl)ccc1-2 [compound 1816]
[5]; [13]
  IC50: 5 µM
[8]
  IC50: 30 nM

## CC(C)(C)OC(=O)N1CCN(c2c(F)cc3c(=O)c(C(=O)NCCN4CCCC4)cn4c3c2Oc2cc(Cl)ccc2-4)CC1 [compound 1818]
[5]; [13]
  IC50: 2.9 µM
[8]
  IC50: 40 nM

## O=C(NCCN1CCCC1)c1cn2c3c(c(N4CCNCC4)c(F)cc3c1=O)Oc1cc(Cl)ccc1-2 [compound 1820]
[5]; [13]
  IC50: 8.2 µM
[8]
  IC50: 30 nM

## CC(C)CN1CCN(c2c(F)cc3c(=O)c(C(=O)NCCN4CCCC4)cn4c3c2Oc2cc(Cl)ccc2-4)CC1 [compound 1826]
[5]; [13]
  IC50: 7.5 µM
[8]
  IC50: 30 nM

## CCN1CCN(c2c(F)cc3c(=O)c(C(=O)NCCN4CCCC4)cn4c3c2Oc2cc(Cl)ccc2-4)CC1 [compound 1827]
[5]; [13]
  IC50: 4.8 µM
[8]
  IC50: 10 nM

## COc1ccc(CN2CCN(c3c(F)cc4c(=O)c(C(=O)NCCN5CCCC5)cn5c4c3Oc3cc(Cl)ccc3-5)CC2)cc1 [compound 1828]
[5]; [13]
  IC50: 7.5 µM
[8]
  IC50: 100 nM

## VP-16
[9]
  topoisomerase-II mediated DNA cleavage: formation of double-strand breaks
